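Method: 48-hour compound exposure of cells in 96-well plates, five concentrations, linear interpolation of endpoints. GI50 is the concentration that inhibits growth by half.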 Calls of active or inactive are those of the source. Cut-off read from the data, not from the text of the source: active = GI50 up to about 1.1 µM and inactive = higher. A value given as a limit tells only on which side of the number the result lay.

This note sets out measurements from ChEMBL document CHEMBL1201862, “PubChem BioAssay data set” (2004).

Test in all cases: growth of human tumour cells (NCI), 48 h
Assay [1] concerns SK-MEL-5.
Assay [2] deals with MDA-MB-231.
Assay [3] has as its system HCT-15.
Assay [4] deals with OVCAR-4.
The subject of assay [5] is U-251.
Assay [6] concerns MCF7.
For assay [7], the system named is SW-620.
Assay [8] relates to A549.
Assay [9] relates to ACHN.
Assay [10] relates to Malme-3M.
Assay [11] deals with OVCAR-8.
The subject of assay [12] is KM12.
The subject of assay [13] is SK-MEL-28.
For assay [14], the system named is K562.
Assay [15] has as its system RXF 393.
The test system of assay [16] is Hs-578T.
Assay [17] deals with OVCAR-5.
Assay [18] has as its system NCI-H460.
The test system of assay [19] is UACC-62.

Regarding `CC[C@@H]1CC[C@@H]2[C@H](CC[C@]3(C)[C@@H](OS(=O)(=O)c4ccc(C)cc4)CC[C@@H]23)[C@H]1CO`, the GI50 was 42.6 µM (inactive) in assay [1]; > 100 µM (inactive) in assay [2]; 82.4 µM in assay [3]; > 100 µM (inactive) in assay [4]; > 100 µM (inactive) in assay [5]; 43.3 µM (inactive) in assay [6]. The GI50 in assay [7], in assay [8], in assay [9], in assay [10], in assay [11] and in assay [12] was > 100 µM (inactive) throughout. Further, the GI50 in assay [13] is > 100 µM (inactive); in assay [14], 69.2 µM (inactive); in assay [15] it was > 100 µM (inactive); in assay [16], > 100 µM (inactive); in assay [17] it was > 100 µM (inactive); in assay [18], > 100 µM (inactive).
Regarding `O=C(O)CC(Sc1ccccc1)c1ccccc1` (stereo not drawn), the GI50 was > 100 µM (inactive) in assay [1]; > 100 µM (inactive) in assay [2]; more than 100 µM in assay [3]; > 100 µM (inactive) in assay [4]; > 100 µM (inactive) in assay [5]; > 100 µM (inactive) in assay [6]. The GI50 in assay [7], in [8], in assay [9], in [10], in [19] and in [11] was > 100 µM (inactive) throughout. Further, the GI50 in assay [12], in assay [13], in assay [14], in [15], in [16] and in assay [17] was > 100 µM (inactive) in each case.
As for `OC[C@@H](O)[C@H](O)[C@@H](O)/C=N/Nc1ccc(Cl)nn1`, the GI50 was > 100 µM (inactive) in [1]; > 100 µM (inactive) in [2]; more than 100 µM in [3]; > 100 µM (inactive) in assay [4]; > 100 µM (inactive) in [5]; > 100 µM (inactive) in [6]. The GI50 in assay [7], in [8], in [9], in [10], in [19] and in [11] was > 100 µM (inactive) in each case. Also, the GI50 in assay [12], in assay [13], in assay [15], in assay [16], in assay [17] and in [18] was > 100 µM (inactive) each time.
For the molecule `CCOC(=O)c1ccc(NCC#CCN2CCCCC2)cc1`, the GI50 was 38.5 µM (inactive) in assay [1]; > 100 µM (inactive) in [2]; 89.9 µM in assay [3]; > 100 µM (inactive) in [4]; > 100 µM (inactive) in [5]; 73.8 µM (inactive) in assay [6]. The GI50 in [7] is > 100 µM (inactive); in assay [8], > 100 µM (inactive); in [9] it was 57.5 µM (inactive); in [10] it was > 100 µM (inactive); in [19] it was 50.1 µM (inactive); in assay [12], > 100 µM (inactive). The GI50 was > 100 µM (inactive) in assay [13]; 26.8 µM (inactive) in assay [14]; > 100 µM (inactive) in [15]; > 100 µM (inactive) in assay [16]; 83.6 µM (inactive) in [17].
As for `COC(=O)C1(Cc2ccc3c(c2)CCC3)Cc2ccc3c(c2C1)CCC3` (stereo not drawn), the GI50 in [1] was 16.6 µM (inactive); in assay [2], 15.6 µM (inactive); in assay [3] it was 25 µM; in assay [4] it was 17.2 µM (inactive); in [5], 17.3 µM (inactive); in [6], 13.2 µM (inactive). The GI50 in assay [7] is 25.2 µM (inactive); in assay [8], 27.4 µM (inactive); in assay [9] it was 24.1 µM (inactive); in assay [10], 16.5 µM (inactive); in [19], 32 µM (inactive); in assay [11], 32.1 µM (inactive). Further, the GI50 in assay [12] was 17.7 µM (inactive); in assay [13] it was 23.9 µM (inactive); in assay [14], 85.5 µM (inactive); in assay [15], 24 µM (inactive); in [16] it was 17.4 µM (inactive); in assay [18], 24.8 µM (inactive).
As for `COc1ccc(C(=O)/C=C/c2ccc(OCCCOc3ccc(/C=C/C(=O)c4ccc(OC)cc4)cc3)cc2)cc1`, the GI50 was > 100 µM (inactive) in [1]; > 100 µM (inactive) in [2]; more than 100 µM in [3]; 60.7 µM (inactive) in assay [4]; > 100 µM (inactive) in assay [5]; > 100 µM (inactive) in assay [6]. For the same molecule, the GI50 was > 100 µM (inactive) in assay [7]; > 100 µM (inactive) in assay [8]; > 100 µM (inactive) in [9]; > 100 µM (inactive) in assay [19]; > 100 µM (inactive) in assay [11]; 91.2 µM (inactive) in [12]. The GI50 in [13] was 63 µM (inactive); in assay [14] it was > 100 µM (inactive); in assay [15], > 100 µM (inactive); in assay [16], > 100 µM (inactive); in assay [17], > 100 µM (inactive); in [18], > 100 µM (inactive).
Take `NC(C(=O)OC(=O)c1ccccc1)C(=O)OC(=O)c1ccccc1`: the GI50 in assay [1] is > 100 µM (inactive); in [2], > 100 µM (inactive); in assay [3] it was more than 100 µM; in [4], > 100 µM (inactive); in assay [5], > 100 µM (inactive); in [6], > 100 µM (inactive). For the same molecule, the GI50 in assay [7], in assay [8], in [9], in assay [10], in assay [11] and in assay [12] was > 100 µM (inactive) in each case. Further, the GI50 is > 100 µM (inactive) in assay [13]; > 100 µM (inactive) in assay [14]; > 100 µM (inactive) in assay [15]; 59.3 µM (inactive) in [16]; > 100 µM (inactive) in assay [17]; > 100 µM (inactive) in assay [18].
For `CSc1ccc(/C=C2\N=C(c3ccccc3)N(c3nc4c(Cl)cc(Cl)cc4s3)C2=O)cc1`, the GI50 in assay [1] is 16.2 µM (inactive); in [2] it was 18.9 µM (inactive); in [3], 28.5 µM; in assay [4], 21.2 µM (inactive); in assay [5] it was 17.1 µM (inactive); in assay [6], 24.9 µM (inactive). Moreover, the GI50 in [7] is 29.4 µM (inactive); in assay [8] it was 21.4 µM (inactive); in assay [9], 27 µM (inactive); in assay [19], 24.4 µM (inactive); in [11], 38.5 µM (inactive); in assay [12], 23 µM (inactive). The GI50 in assay [13] was 31.1 µM (inactive); in assay [14], 26.7 µM (inactive); in assay [15] it was 41 µM (inactive); in [16], 21.9 µM (inactive); in [17], 31.1 µM (inactive); in [18] it was 25.6 µM (inactive).
